We go through 31 molecules from US20240327359A1, “3-ISOXAZOLIDINONE COMPOUND, PREPARATION METHOD, HERBICIDAL COMPOSITION AND APPLICATION THEREOF” (QINGDAO KINGAGROOT CHEMICAL COMPOUND CO., LTD., priority 2021, published 2024).

SMILES strings stand for the structures. Read-outs that look alike come from different tables or passages of the source.

The subject of the assay is weeds. Briefly: Activity test of the compositions, soil sealing treatment. The format is in vivo. The settings on record: for pest or weed control at 90 g/ha: B 6 g a.i./mu; for pest or weed control at 180 g/ha: B 12 g a.i./mu; for pest or weed control at 6 g/ha: B 0.4 g a.i./mu; for pest or weed control at 12 g/ha: B 0.8 g a.i./mu. The method, then:
The desired active ingredient B was purchased from a reagent company or synthesized by a known method. The technical materials were all dissolved in acetone and diluted with an aqueous solution containing 0.10% emulsifier Tween-80 which were to be used immediately after dilution.
Weeds are cultivated in a controllable sunlight greenhouse at 20 to 30° C., in natural light, and with relative humidity of 57% to 72%. […] The test soil was filled quantitatively to ¾ of the pots and then watered from the bottom of the pots to completely wet the soil to saturation. The test weed seeds were accelerated to just germinate, and then evenly and quantitatively sowed on the surface, then covered with 0.5-1 cm soil according to the seed size, and ready for use 72 hours after sowing.
Each treatment was repeated 4 times. Four pots with 20 weed seeds per pot were treated each time.
The well-sowed test materials were evenly placed on a platform with an area of 0.5 m^2, and solution of agents was sprayed on the soil by the 3WP-2000-type walking spray tower at a dosage of 450 kg/ha and at a spray pressure of 0.3 MPa. After all the solution was sprayed, the valve was closed. After 30 seconds, the door of the spray tower was opened, and the nutritional bowl was taken out. Then the valve was opened, and the spray tube was cleaned by spraying 50 ml of water.
A method for investigating absolute numbers was employed. Whole seedlings of survival weeds were cut off with a blade along the soil surface, and the fresh weight of the weeds was weighed with an analytical balance. For dead weeds, the fresh weight thereof was zero.
The investigation was performed 21 days after the treatment for only once in total.

Setting [1] is: Echinochloa crus-galli, Echinochloa crusgalli, soil (S), B 1 g a.i./mu, read-out: Control effect (%) of B applied alone (B).
The mark [2] stands for this setting: Echinochloa crus-galli, Echinochloa crusgalli, soil (S), B 2 g a.i./mu, read-out: Control effect (%) of B applied alone (B).
Where [3] appears, read: Echinochloa crusgalli, soil (S), B 2 g a.i./mu.
Setting [4] is: Echinochloa crus-galli, Echinochloa crusgalli, soil (S), read-out: Control effect (%) of B applied alone (B).
The mark [5] stands for this setting: Lolium multiflorum, soil (S), B 2 g a.i./mu, read-out: Control effect (%) of B applied alone (B).
Where [6] appears, read: Commelina communis, soil (S), read-out: Control effect (%) of B applied alone (B).
The mark [7] stands for this setting: Lolium multiflorum, soil, read-out: Control effect (%) of B applied alone (B).
[8] abbreviates: Echinochloa crus-galli, soil, read-out: Control effect (%) of B applied alone (B).
[9] abbreviates: Lolium multiflorum, soil (S), read-out: Control effect (%) of B applied alone (B).
The mark [10] stands for this setting: Echinochloa crus-galli, Echinochloa crusgalli, soil (S), B 4 g a.i./mu, read-out: Control effect (%) of B applied alone (B).
Where [11] appears, read: Echinochloa crus-galli, Echinochloa crusgalli, soil (S), B 8 g a.i./mu, read-out: Control effect (%) of B applied alone (B).

`CS(=O)(=O)c1cc(C(F)(F)F)ccc1C(=O)c1cnoc1C1CC1` [isoxaflutole]: the pest or weed control at 15 g/ha under setting [1] was found to be 26.4%. Under setting [2], the pest or weed control at 30 g/ha stood at 44.3%.
On to `COC(=O)c1ccccc1CS(=O)(=O)NC(=O)Nc1nc(OC)cc(OC)n1` [bensulfuron-methyl], for which the pest or weed control at 7.5 g/ha (Cyperus difformis, soil (S), B 0.5 g a.i./mu, read-out: Control effect (%) of B applied alone (B)) was found to be 42.6%. Moreover, the pest or weed control at 15 g/ha (Cyperus difformis, soil (S), B 1 g a.i./mu, read-out: Control effect (%) of B applied alone (B)) came to 55.8%.
With `CCCCOCN(C(=O)CCl)c1c(CC)cccc1CC` [butachlor], for the setting “Lolium multiflorum, soil (S), B 16 g a.i./mu, read-out: Control effect (%) of B applied alone (B)”, the pest or weed control at 240 g/ha came out at 28.8%. For the same molecule, the pest or weed control at 480 g/ha (Lolium multiflorum, soil (S), B 32 g a.i./mu, read-out: Control effect (%) of B applied alone (B)) was found to be 46.4%.
For the molecule `CCc1cnc(C2=NC(C)(C(C)C)C(=O)N2)c(C(=O)O)c1` (centres unmarked) [imazethapyr], the pest or weed control at 15 g/ha under setting [1] stood at 33.4%. Further, the pest or weed control at 30 g/ha under setting [2] is 43.8%.
For `C#CCN1C(=O)COc2cc(F)c(N3C(=O)C4=C(CCCC4)C3=O)cc21` [flumioxazin], the pest or weed control at 7.5 g/ha (Echinochloa crus-galli, Echinochloa crusgalli, soil (S), B 0.5 g a.i./mu, read-out: Control effect (%) of B applied alone (B)) came out at 32.8%. Under setting [1], the pest or weed control at 15 g/ha worked out at 45.1%.
`C#CCN(C)c1c(C#N)cnn1-c1nn2c(c1Cl)CCCC2` [pyraclonil]: the “Control effect (%) of B applied alone (B)” value (shortened to “Control effect (%)”) stood at 22.5% (Echinochloa crusgalli, soil (S), B 1 g a.i./mu) and 43.6% under setting [3].
For `CC(C)N(C(=O)COc1nnc(C(F)(F)F)s1)c1ccc(F)cc1` [flufenacet], under setting [4], the pest or weed control at 90 g/ha worked out at 29.8% and the pest or weed control at 180 g/ha was found to be 37.5%.
Take `Cn1nc(C(F)(F)F)c(CS(=O)(=O)C2=NOC(C)(C)C2)c1OC(F)F` [pyroxasulfone]: the pest or weed control at 30 g/ha under setting [5] came out at 24.7%. Further, the pest or weed control at 60 g/ha (Lolium multiflorum, soil (S), B 4 g a.i./mu, read-out: Control effect (%) of B applied alone (B)) came to 49.2%.
`CSc1nc(NC(C)C)nc(NC(C)C)n1` [prometryne]: under setting [6], the pest or weed control at 90 g/ha was determined as 30.5% and the pest or weed control at 180 g/ha was 41.7%.
Take `COc1ccc(-n2c(=O)c(C(=O)C3C(=O)CCCC3=O)nc3c(Cl)cccc32)cc1` [fenquinotrione]: the “Control effect (%)” value by setting is: (Lolium multiflorum, soil (S), B 1.5 g a.i./mu) 28.6%; (Lolium multiflorum, soil (S), B 3 g a.i./mu) 44.1%.
Turning to `CCC(Oc1ccc(F)c(C(F)(F)F)c1)C(=O)NCc1ccccc1` (centres unmarked) [beflubutamid], the “Control effect (%)” value is, setting by setting: (Veronica didyma, soil (S), B 1 g a.i./mu) 42.6%; (Veronica didyma, soil (S), B 2 g a.i./mu) 57.9%.
For the molecule `CN(C)C(=O)Nc1ccc(Cl)c(Cl)c1` [diuron], under setting [7], the pest or weed control at 600 g/ha came out at 39.4% and the pest or weed control at 1200 g/ha was determined as 65.3%.
On to `CCN(CC)C(=O)C(C)Oc1cccc2ccccc12` (centres unmarked) [napropamide], for which, under setting [8], the pest or weed control at 120 g/ha was 30.1% and the pest or weed control at 240 g/ha was 42.3%.
Turning to `CC(C)N(C(=O)n1cnn(-c2ccc(Cl)cc2Cl)c1=O)c1ccc(F)cc1F` [ipfencarbazone], the “Control effect (%)” value came to 41.5% under setting [3] and 57.6% (Echinochloa crusgalli, soil (S), B 4 g a.i./mu).
For the molecule `C#CCN1C(=O)C(F)(F)Oc2cc(F)c(-n3c(=O)n(C)c(=S)n(C)c3=O)cc21` [trifludimoxazin], the “Control effect (%)” value is 31.5% (Lolium multiflorum, soil (S), B 2 g a.i./mu) and 42.6% (Lolium multiflorum, soil (S), B 4 g a.i./mu).
For the molecule `CC1=C(c2ccccc2)C(=O)N(C(C)(C)c2cc(Cl)cc(Cl)c2)CO1` [oxaziclomefone], for the setting “Echinochloa crus-galli, 504 h, Echinochloa crusgalli, soil treatment (S), B at 0.5 g a.i./mu, 21 days, read-out: Control effect (%) of B applied alone (B)”, the pest or weed control at 7.5 g/ha is 33.7%. The pest or weed control at 15 g/ha (Echinochloa crus-galli, 504 h, Echinochloa crusgalli, soil treatment (S), B at 1 g a.i./mu, 21 days, read-out: Control effect (%) of B applied alone (B)) worked out at 51.2%.
On to `CCOCN(C(=O)CCl)c1c(C)cccc1CC` [acetochlor], for which, under setting [9], the pest or weed control at 180 g/ha worked out at 36.5%. Also, the pest or weed control at 360 g/ha (Lolium multiflorum, soil (S), B 24 g a.i./mu, read-out: Control effect (%) of B applied alone (B)) stood at 45.7%.
Consider `COCC(C)N(C(=O)CCl)c1c(C)csc1C` (centres unmarked) [dimethenamid], for which, under setting [4], the pest or weed control at 90 g/ha was found to be 31.5% and the pest or weed control at 180 g/ha amounted to 43.7%.
With `Cc1cc(C)cc(OCC(C)Nc2nc(N)nc(C(C)(C)F)n2)c1` (centres unmarked) [triaziflam], the “Control effect (%)” value runs as follows: (Echinochloa crusgalli, soil treatment (S), B at 2 g a.i./mu, 21 days) 29.4%; (Echinochloa crusgalli, soil treatment (S), B at 4 g a.i./mu, 21 days) 40.5%.
Regarding `Cc1nn(-c2cc(NS(C)(=O)=O)c(Cl)cc2Cl)c(=O)n1C(F)F` [sulfentrazone], the pest or weed control at 60 g/ha under setting [10] turned out to be 34.2%. Further, the pest or weed control at 120 g/ha under setting [11] stood at 53.6%.
As to `O=C(Nc1ccc(F)cc1F)c1cccnc1Oc1cccc(C(F)(F)F)c1` [diflufenican], under “Lolium multiflorum, soil (S), B 1 g a.i./mu, read-out: Control effect (%) of B applied alone (B)”, the pest or weed control at 15 g/ha was determined as 37.1%. Moreover, under setting [5], the pest or weed control at 30 g/ha stood at 52.4%.
For the molecule `COCc1cnc(C2=NC(C)(C(C)C)C(=O)N2)c(C(=O)O)c1` (centres unmarked) [imazamox], under setting [9], the pest or weed control at 6 g/ha amounted to 25.4% and the pest or weed control at 12 g/ha came to 42.7%.
For the molecule `CC(C)N(C)S(=O)(=O)NC(=O)c1cc(-n2c(=O)cc(C(F)(F)F)n(C)c2=O)c(F)cc1Cl` [saflufenacil], the pest or weed control at 3.75 g/ha (Amaranthus retroflexus, soil (S), B 0.25 g a.i./mu, read-out: Control effect (%) of B applied alone (B)) was found to be 35.2%. In addition, the pest or weed control at 7.5 g/ha (Amaranthus retroflexus, soil (S), B 0.5 g a.i./mu, read-out: Control effect (%) of B applied alone (B)) was 43.8%.
Consider `CCC(C)Nc1c([N+](=O)[O-])cc(C(C)(C)C)cc1[N+](=O)[O-]` (centres unmarked) [butralin], for which, under setting [7], the pest or weed control at 240 g/ha turned out to be 19.5% and the pest or weed control at 480 g/ha was 35.8%.
Turning to `CCOc1cc(Oc2ccc(C(F)(F)F)cc2Cl)ccc1[N+](=O)[O-]` [oxyfluorfen], the pest or weed control at 15 g/ha (Digitaria sanguinalis, soil (S), B 1 g a.i./mu, read-out: Control effect (%) of B applied alone (B)) turned out to be 28.6%. Also, for the setting “Digitaria sanguinalis, soil (S), B 2 g a.i./mu, read-out: Control effect (%) of B applied alone (B)”, the pest or weed control at 30 g/ha turned out to be 39.5%.
With `CCOC(=O)COc1ncccc1Oc1cc(-n2c(=O)cc(C(F)(F)F)n(C)c2=O)c(F)cc1Cl` [epyrifenacil], the “Control effect (%)” value (Amaranthus retroflexus, soil (S), B 0.5 g a.i./mu) turned out to be 36.9% and the “Control effect (%)” value (Amaranthus retroflexus, soil (S), B 1 g a.i./mu) was found to be 47.1%.
As to `Cc1ccc(NC(=O)N(C)C)cc1Cl` [chlorotoluron], the pest or weed control at 225 g/ha (Alopecurus japonicus, soil (S), B 15 g a.i./mu, read-out: Control effect (%) of B applied alone (B)) stood at 34.2%. Further, the pest or weed control at 450 g/ha (Alopecurus japonicus, soil (S), B 30 g a.i./mu, read-out: Control effect (%) of B applied alone (B)) was 58.3%.
In the case of `CCSC(=O)N1CCCCCC1` [molinate], the pest or weed control at 300 g/ha (Echinochloa crus-galli, Echinochloa crusgalli, soil (S), B 20 g a.i./mu, read-out: Control effect (%) of B applied alone (B)) was 39.6%. Besides, for the setting “Echinochloa crus-galli, Echinochloa crusgalli, soil (S), B 40 g a.i./mu, read-out: Control effect (%) of B applied alone (B)”, the pest or weed control at 600 g/ha was found to be 51.7%.
Regarding `COC(=O)C12ON=C(c3cc(-n4c(=O)cc(C(F)(F)F)n(C)c4=O)c(F)cc3Cl)C1CCC2C` (centres unmarked), the pest or weed control at 15 g/ha under setting [1] turned out to be 40.2%. The pest or weed control at 30 g/ha under setting [2] came to 53.1%.
As to `Cc1ccccc1CO[C@@H]1C[C@@]2(C(C)C)CC[C@]1(C)O2` (racemic) [cinmethylin], under setting [4], the pest or weed control at 6 g/ha is 26.4% and the pest or weed control at 12 g/ha came to 38.6%.
`CSC(=O)c1c(C(F)F)nc(C(F)(F)F)c(C(=O)SC)c1CC(C)C` [dithiopyr]: the pest or weed control at 60 g/ha under setting [10] was found to be 40.1%. In addition, under setting [11], the pest or weed control at 120 g/ha was determined as 53.2%.
